These results are taken from patent US10081624B2, “Heterocyclic compound” (Takeda Pharmaceutical Company Limited, priority 2014, dated 2018).

SMILES strings stand for the structures.

One assay has as its target T1, HDAC1 enzyme (Homo sapiens, UniProt Q13547).
T1 construct: prepared by transducing full length HDAC1 and HDAC6 genes into Sf-9 insect cells; GST; purchased SignalChem; host or cells: Sf-9 insect cells
Put plainly: HDAC1 enzyme inhibitory assay (HDAC-Glo I/II Assay kit). Format: biochemical. The settings on record: 1 μM test compound; read-out: HDAC1 inhibitory rate (%) (1 μM). Put shortly: (§1)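 Full-length GST-purified HDAC1 or HDAC6 (Sf-9 expressed) preincubated 60 min at room temperature with compound in Tris-HCl pH 7.5 buffer with glutathione and Tween-20. HDAC-Glo substrate-developer added, 20 min at room temperature, then luminescence read; inhibition relative to no-enzyme wells as 100%.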

For another assay, the target named is T2, HDAC6 enzyme (Homo sapiens, UniProt Q9UBN7).
T2 construct: prepared by transducing full length HDAC1 and HDAC6 genes into Sf-9 insect cells; GST; purchased SignalChem; host or cells: Sf-9 insect cells
T2 sequence (Q9UBN7 1-1215): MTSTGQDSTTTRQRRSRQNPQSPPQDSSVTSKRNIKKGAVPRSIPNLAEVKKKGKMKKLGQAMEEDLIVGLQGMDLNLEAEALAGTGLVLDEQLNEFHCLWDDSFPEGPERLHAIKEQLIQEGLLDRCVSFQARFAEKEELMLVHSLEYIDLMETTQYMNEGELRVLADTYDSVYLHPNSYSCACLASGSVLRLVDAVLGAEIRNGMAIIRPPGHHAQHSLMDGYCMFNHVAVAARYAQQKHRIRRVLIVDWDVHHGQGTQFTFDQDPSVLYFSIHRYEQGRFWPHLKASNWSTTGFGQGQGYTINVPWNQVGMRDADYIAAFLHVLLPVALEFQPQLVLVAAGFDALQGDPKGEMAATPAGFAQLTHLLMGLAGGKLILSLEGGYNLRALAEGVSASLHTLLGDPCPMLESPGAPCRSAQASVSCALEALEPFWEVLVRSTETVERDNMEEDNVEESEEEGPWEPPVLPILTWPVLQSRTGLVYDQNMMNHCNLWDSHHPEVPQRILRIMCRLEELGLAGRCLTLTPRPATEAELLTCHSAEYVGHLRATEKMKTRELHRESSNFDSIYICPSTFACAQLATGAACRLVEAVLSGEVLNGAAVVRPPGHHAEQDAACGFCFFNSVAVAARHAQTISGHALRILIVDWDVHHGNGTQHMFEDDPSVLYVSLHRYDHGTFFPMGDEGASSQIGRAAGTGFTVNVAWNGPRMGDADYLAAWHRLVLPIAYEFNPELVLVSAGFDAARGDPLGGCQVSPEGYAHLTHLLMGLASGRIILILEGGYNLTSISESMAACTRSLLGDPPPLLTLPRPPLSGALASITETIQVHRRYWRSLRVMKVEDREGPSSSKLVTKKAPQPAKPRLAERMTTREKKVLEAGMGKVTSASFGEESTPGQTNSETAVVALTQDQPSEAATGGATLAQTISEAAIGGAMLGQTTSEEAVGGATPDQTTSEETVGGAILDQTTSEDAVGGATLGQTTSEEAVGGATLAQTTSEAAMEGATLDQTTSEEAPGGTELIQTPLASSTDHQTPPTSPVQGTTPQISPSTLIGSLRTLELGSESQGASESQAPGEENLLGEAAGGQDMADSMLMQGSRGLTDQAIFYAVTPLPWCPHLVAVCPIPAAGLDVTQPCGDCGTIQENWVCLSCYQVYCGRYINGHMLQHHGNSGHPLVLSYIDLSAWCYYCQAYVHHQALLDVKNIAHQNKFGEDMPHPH
The assay can be described thus: HDAC6 enzyme inhibitory assay (HDAC-Glo I/II Assay kit). Format: biochemical. The settings on record: 1 μM test compound; read-out: HDAC6 inhibitory rate (%) (1 μM). Put shortly: as §1

T1 sequence (Q13547 whole entry): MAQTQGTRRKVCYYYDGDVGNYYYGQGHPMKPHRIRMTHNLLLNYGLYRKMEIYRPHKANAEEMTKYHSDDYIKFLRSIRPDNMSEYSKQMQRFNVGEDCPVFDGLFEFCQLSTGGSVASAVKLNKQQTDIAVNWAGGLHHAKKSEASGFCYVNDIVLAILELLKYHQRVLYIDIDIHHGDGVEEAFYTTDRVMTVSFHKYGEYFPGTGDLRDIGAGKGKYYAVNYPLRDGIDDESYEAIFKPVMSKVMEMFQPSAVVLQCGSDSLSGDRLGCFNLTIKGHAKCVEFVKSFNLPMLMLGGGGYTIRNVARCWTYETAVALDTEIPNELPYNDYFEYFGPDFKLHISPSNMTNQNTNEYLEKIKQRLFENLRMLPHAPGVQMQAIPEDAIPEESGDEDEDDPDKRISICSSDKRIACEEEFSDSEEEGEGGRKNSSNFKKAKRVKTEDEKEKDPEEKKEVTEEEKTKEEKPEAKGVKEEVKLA

Regarding `O=C(NC[C@@H]1COCCN1C(=O)C1(c2ccccc2)CC1)c1ccc(-c2noc(C(F)(F)F)n2)cc1` [Example 128, N-(((3R)-4-((1-phenylcyclopropyl)carbonyl)morpholin-3-yl)methyl)-4-(5-(trifluoromethyl)-1,2,4-oxadiazol-3-yl)benzamide], the figures for the inhibition at 1 µM at HDAC1 enzyme and at HDAC6 enzyme were 6% and 92%, respectively.

In the case of `Cc1nonc1C(=O)N1CCOC[C@H]1CNC(=O)c1ccc(-c2noc(C(F)(F)F)n2)cc1` [Example 132, N-(((3R)-4-((4-methyl-1,2,5-oxadiazol-3-yl)carbonyl)morpholin-3-yl)methyl)-4-(5-(trifluoromethyl)-1,2,4-oxadiazol-3-yl)benzamide], the inhibition at 1 µM at HDAC1 enzyme was determined as 16%; on HDAC6 enzyme it was 98%.

Turning to `O=C(NC[C@@H]1COCCN1C(=O)c1ccno1)c1ccc(-c2noc(C(F)(F)F)n2)cc1` [Example 133, N-(((3R)-4-(1,2-oxazol-5-ylcarbonyl)morpholin-3-yl)methyl)-4-(5-(trifluoromethyl)-1,2,4-oxadiazol-3-yl)benzamide], the results for the inhibition at 1 µM at HDAC1 enzyme and on HDAC6 enzyme were 6% and 96%, respectively.

As for `Cc1cc(C(=O)N2CCOC[C@H]2CNC(=O)c2ccc(-c3noc(C(F)(F)F)n3)cc2)on1` [Example 134, N-(((3R)-4-((3-methyl-1,2-oxazol-5-yl)carbonyl)morpholin-3-yl)methyl)-4-(5-(trifluoromethyl)-1,2,4-oxadiazol-3-yl)benzamide], the inhibition at 1 µM was 11% on HDAC1 enzyme and 97% at HDAC6 enzyme.

As to `O=C(NC[C@@H]1COCCN1C(=O)c1csnn1)c1ccc(-c2noc(C(F)(F)F)n2)cc1` [Example 142, N-(((3R)-4-(1,2,3-thiadiazol-4-ylcarbonyl)morpholin-3-yl)methyl)-4-(5-(trifluoromethyl)-1,2,4-oxadiazol-3-yl)benzamide], the inhibition at 1 µM on HDAC1 enzyme worked out at 12%; at HDAC6 enzyme, 96%.

As for `Cc1ccc(C(=O)N2CCOC[C@H]2CNC(=O)c2ccc(-c3noc(C(F)(F)F)n3)cc2)s1` [Example 144, N-(((3R)-4-((5-methyl-2-thienyl)carbonyl)morpholin-3-yl)methyl)-4-(5-(trifluoromethyl)-1,2,4-oxadiazol-3-yl)benzamide], the results for the inhibition at 1 µM on HDAC1 enzyme and at HDAC6 enzyme were 14% and 96%, respectively.

For `Cc1csc(C(=O)N2CCOC[C@H]2CNC(=O)c2ccc(-c3noc(C(F)(F)F)n3)cc2)c1` [Example 145, N-(((3R)-4-((4-methyl-2-thienyl)carbonyl)morpholin-3-yl)methyl)-4-(5-(trifluoromethyl)-1,2,4-oxadiazol-3-yl)benzamide], the inhibition at 1 µM at HDAC1 enzyme was 15%; on HDAC6 enzyme, 97%.

Turning to `O=C(NC[C@@H]1COCCN1C(=O)C1CC1)c1ccc(-c2noc(C(F)(F)F)n2)cc1` [Example 147, N-(((3R)-4-(cyclopropylcarbonyl)morpholin-3-yl)methyl)-4-(5-(trifluoromethyl)-1,2,4-oxadiazol-3-yl)benzamide], the figures for the inhibition at 1 µM on HDAC1 enzyme and at HDAC6 enzyme were 7% and 94%, respectively.

For `O=C(NC[C@@H]1COCCN1C(=O)CC1CC1)c1ccc(-c2noc(C(F)(F)F)n2)cc1` [Example 148, N-(((3R)-4-(cyclopropylacetyl)morpholin-3-yl)methyl)-4-(5-(trifluoromethyl)-1,2,4-oxadiazol-3-yl)benzamide], the inhibition at 1 µM on HDAC1 enzyme was found to be 10%; on HDAC6 enzyme, 95%.

For the molecule `O=C(NC[C@@H]1COCCN1C(=O)C1CCCC1)c1ccc(-c2noc(C(F)(F)F)n2)cc1` [Example 149, N-(((3R)-4-(cyclopentylcarbonyl)morpholin-3-yl)methyl)-4-(5-(trifluoromethyl)-1,2,4-oxadiazol-3-yl)benzamide], the inhibition at 1 µM at HDAC1 enzyme amounted to 12%; at HDAC6 enzyme, 96%.

In the case of `O=C(NC[C@@H]1COCCN1C(=O)C1CCCCC1)c1ccc(-c2noc(C(F)(F)F)n2)cc1` [Example 152, N-(((3R)-4-(cyclohexylcarbonyl)morpholin-3-yl)methyl)-4-(5-(trifluoromethyl)-1,2,4-oxadiazol-3-yl)benzamide], the inhibition at 1 µM was 20% on HDAC1 enzyme and 99% at HDAC6 enzyme.

Turning to `O=C(NC[C@@H]1COCCN1C(=O)C1CCOCC1)c1ccc(-c2noc(C(F)(F)F)n2)cc1` [Example 153, N-(((3R)-4-(tetrahydro-2H-pyran-4-ylcarbonyl)morpholin-3-yl)methyl)-4-(5-(trifluoromethyl)-1,2,4-oxadiazol-3-yl)benzamide], the inhibition at 1 µM is 3% at HDAC1 enzyme and 92% on HDAC6 enzyme.

Take `O=C(NC[C@@H]1COCCN1C(=O)c1cc(F)cc(F)c1)c1ccc(-c2noc(C(F)(F)F)n2)cc1` [Example 155, N-(((3R)-4-(3,5-difluorobenzoyl)morpholin-3-yl)methyl)-4-(5-(trifluoromethyl)-1,2,4-oxadiazol-3-yl)benzamide]: the inhibition at 1 µM stood at 15% at HDAC1 enzyme and 99% at HDAC6 enzyme.

As for `Cn1nc2ccccc2c1C(=O)N1CCOC[C@H]1CNC(=O)c1ccc(-c2noc(C(F)(F)F)n2)cc1` [Example 157, N-(((3R)-4-((2-methyl-2H-indazol-3-yl)carbonyl)morpholin-3-yl)methyl)-4-(5-(trifluoromethyl)-1,2,4-oxadiazol-3-yl)benzamide], the figures for the inhibition at 1 µM on HDAC1 enzyme and at HDAC6 enzyme were 31% and 92%, respectively.

Regarding `O=C(NC[C@@H]1COCCN1C(=O)N1CCCCC1)c1ccc(-c2noc(C(F)(F)F)n2)cc1` [Example 158, N-(((3R)-4-(piperidin-1-ylcarbonyl)morpholin-3-yl)methyl)-4-(5-(trifluoromethyl)-1,2,4-oxadiazol-3-yl)benzamide], the figures for the inhibition at 1 µM on HDAC1 enzyme and on HDAC6 enzyme were 12% and 97%, respectively.

Regarding `CN(CC1COCCN1C(=O)c1ccccc1)C(=O)c1ccc(-c2noc(C(F)(F)F)n2)cc1` (stereo not drawn) [Example 159, N-((4-benzoylmorpholin-3-yl)methyl)-N-methyl-4-(5-(trifluoromethyl)-1,2,4-oxadiazol-3-yl)benzamide], the inhibition at 1 µM on HDAC1 enzyme was 11%; on HDAC6 enzyme, 42%.

Take `O=C(C[C@H]1COCCN1C(=O)c1ccccc1)Nc1ccc(-c2noc(C(F)(F)F)n2)cc1` [Example 160, 2-((3S)-4-benzoylmorpholin-3-yl)-N-(4-(5-(trifluoromethyl)-1,2,4-oxadiazol-3-yl)phenyl)acetamide]: the inhibition at 1 µM on HDAC1 enzyme came to 15%; on HDAC6 enzyme, 98%.

In the case of `CN(C(=O)C[C@H]1COCCN1C(=O)c1ccccc1)c1ccc(-c2noc(C(F)(F)F)n2)cc1` [Example 161, 2-((3S)-4-benzoylmorpholin-3-yl)-N-methyl-N-(4-(5-(trifluoromethyl)-1,2,4-oxadiazol-3-yl)phenyl)acetamide], the values for the inhibition at 1 µM on HDAC1 enzyme and at HDAC6 enzyme were 6% and 48%, respectively.

Regarding `O=C(NCC1CCCN1C(=O)c1ccccc1)c1ccc(-c2noc(C(F)(F)F)n2)cc1` (stereo not drawn) [Example 162, N-((1-benzoylpyrrolidin-2-yl)methyl)-4-(5-(trifluoromethyl)-1,2,4-oxadiazol-3-yl)benzamide], the inhibition at 1 µM is 16% at HDAC1 enzyme and 97% at HDAC6 enzyme.

In the case of `O=C(NCC1CCCCN1C(=O)c1ccccc1)c1ccc(-c2noc(C(F)(F)F)n2)cc1` (stereo not drawn) [Example 163, N-((1-benzoylpiperidin-2-yl)methyl)-4-(5-(trifluoromethyl)-1,2,4-oxadiazol-3-yl)benzamide], the inhibition at 1 µM stood at 25% on HDAC1 enzyme and 97% on HDAC6 enzyme.

Take `Cn1nccc1C(=O)N1CCCC[C@@H]1CNC(=O)c1ccc(-c2noc(C(F)(F)F)n2)cc1` [Example 164, N-(((2R)-1-((1-methyl-1H-pyrazol-5-yl)carbonyl)piperidin-2-yl)methyl)-4-(5-(trifluoromethyl)-1,2,4-oxadiazol-3-yl)benzamide]: the inhibition at 1 µM worked out at 17% at HDAC1 enzyme and 98% at HDAC6 enzyme.
